According to US20100093745A1, “THERAPEUTIC AGENT OR PROPHYLACTIC AGENT FOR DEMYELINATING DISEASE COMPRISING AMINO ALCOHOL DERIVATIVE AS ACTIVE INGREDIENT” (priority 2007, published 2010):

Test system: Mouse Experimental Autoimmune Encephalomyelitis (EAE) Model
Assay: Effect on a mouse experimental autoimmune encephalomyelitis (EAE) model
Format: in vivo
Details: MBP-immunized mice, oral, once a day from the 5th day to 41st day after the immunization

C[C@](N)(CO)CCCc1ccc(Sc2cccc(C(F)(F)F)c2)cc1Cl.Cl [compound 27, (R)-2-amino-5-[2-chloro-4-(3-trifluoromethylphenylthio)phenyl]-2-methylpentan-1-ol hydrochloride]
administration dose showing maximum reaction (onset inhibition): 0.3 mg/kg | onset of disease (clinical symptom score, total score) (0.01 to 0.3 mg/kg, FIG. 1 and FIG. 2): inhibited the onset of disease dose-dependently
